In US20260256792A1, “TREATMENT OF CHRONIC SPONTANEOUS URTICARIA BY ADMINISTERING (R)-2-[3-[4-AMINO-3-(2-FLUORO-4-PHENOXY-PHENYL)PYRAZOLO[3,4-D]PYRIMIDIN-1-YL]PIPERIDINE-1-CARBONYL]-4-METHYL-4-[4-(OXETAN-3-YL)PIPERAZIN-1-YL]PENT-2-ENENITRILE” (priority 2023, published 2026):

Test system: moderate-to-severe chronic spontaneous urticaria (CSU)
Experiment: Phase 2 CSU study: urticaria activity score over 7 days (UAS7)
Assay type: in vivo, human
Parameters: key to UAS7 Median / UAS7 Change from baseline Median / UAS7 change from baseline, Q1 / UAS7 change from baseline, Q3 / UAS7 change from baseline, Max / UAS7 Change from baseline LS Mean (SE): UAS7 points; daily UAS score ranges 0–6 points/day, over 7 days
Conditions: ITT population
From the text: The study comprises a 12 week, randomized, double-blind, placebo-controlled, multi-center, dose-ranging efficacy and safety phase, followed by a 40 week open label extension (OLE) phase (see FIG. 1). The study consists of three phases and an optional OLE phase. […] Clinically, CSU is characterized by the spontaneous and recurrent appearance of pruritic hives. The proposed primary endpoints were the UAS7 at Week 12 in EU and EU reference countries and the ISS7 in the US. Regardless of where a participant was from, all assessments were the same. The UAS7 score is a composite score containing both the HSS7 and the ISS7. This allowed a global assessment of the two key components of urticaria: hives and itch. […] The UAS is a validated PRO measure. […] The daily UAS scores range from 0 to 6 point/day. […] Patients were to complete the UAS using the e-diary. […] The following secondary endpoints were to be analyzed using the same approach as for the primary endpoint: • Change from baseline in UAS7 at Week 4 • Change from baseline in UAS7 at Week 12 (for US and US reference countries) • Change from baseline in ISS7 at Week 12 (except US and US reference countries) • Change from baseline in HSS7 at Week 12 The following responder secondary endpoints were to be analyzed using the Cochran-Mantel-Haenszel test adjusted by region: • Proportion of participants with UAS7<6 at Week 12 • Proportion of participants with UAS7=0 at Week 12 Participants who received selected prohibited medications and/or rescue medications were to be considered as non-responders for time points after the medication usage. For other participants, all available data including those collected during the off-treatment period were to be used to determine the responder/non-responder status. Missing data were to be considered as non-responders.

Compound: CC(C)(C=C(C#N)C(=O)N1CCC[C@@H](n2nc(-c3ccc(Oc4ccccc4)cc3F)c3c(N)ncnc32)C1)N1CCN(C2COC2)CC1 [rilzabrutinib, (R)-2-[3-[4-amino-3-(2-fluoro-4-phenoxy-phenyl)pyrazolo[3,4-d]pyrimidin-1-yl]piperidine-1-carbonyl]-4-methyl-4-[4-(oxetan-3-yl)piperazin-1-yl]pent-2-enenitrile]
- UAS7 Change difference for rilzabrutinib vs. placebo LS Mean (95% CI) (400 mg QPM, Week 1): −3.61
- UAS7 Change from baseline LS Mean (SE) (400 mg QPM, Week 1): −7.44
- UAS7 Post-baseline Mean (SD) (400 mg QPM, Week 1): 23.84 (8.66)
- UAS7 % Change difference for rilzabrutinib vs. placebo LS Mean (95% CI) (400 mg QPM, Week 2): −6.32%
- UAS7 % Change from baseline LS Mean (SE) (400 mg QPM, Week 2): −25.19%
- UAS7 Change difference for rilzabrutinib vs. placebo LS Mean (95% CI) (400 mg QPM, Week 2): −1.80
- UAS7 Change from baseline LS Mean (SE) (400 mg QPM, Week 2): −8.14
- UAS7 Post-baseline Mean (SD) (400 mg QPM, Week 2): 23.40 (8.85)
- UAS7 % Change difference for rilzabrutinib vs. placebo LS Mean (95% CI) (400 mg QPM, Week 4): −5.97%
- UAS7 % Change from baseline LS Mean (SE) (400 mg QPM, Week 4): −29.23%
- UAS7 Change difference for rilzabrutinib vs. placebo LS Mean (95% CI) (400 mg QPM, Week 4): −1.48
- UAS7 Change from baseline LS Mean (SE) (400 mg QPM, Week 4): −9.55
- UAS7 Post-baseline Mean (SD) (400 mg QPM, Week 4): 21.82 (8.73)
- UAS7 % Change difference for rilzabrutinib vs. placebo LS Mean (95% CI) (400 mg QPM, Week 6): −7.24%
- UAS7 % Change from baseline LS Mean (SE) (400 mg QPM, Week 6): −34.14%
- UAS7 Change difference for rilzabrutinib vs. placebo LS Mean (95% CI) (400 mg QPM, Week 6): −1.88
- UAS7 Change from baseline LS Mean (SE) (400 mg QPM, Week 6): −11.02
- UAS7 Post-baseline Mean (SD) (400 mg QPM, Week 6): 20.12 (10.28)
- UAS7 % Change difference for rilzabrutinib vs. placebo LS Mean (95% CI) (400 mg QPM, Week 7): −7.16%
- UAS7 % Change from baseline LS Mean (SE) (400 mg QPM, Week 7): −34.50%
- UAS7 Change difference for rilzabrutinib vs. placebo LS Mean (95% CI) (400 mg QPM, Week 7): −1.89
- UAS7 Change from baseline LS Mean (SE) (400 mg QPM, Week 7): −10.95
- UAS7 Post-baseline Mean (SD) (400 mg QPM, Week 7): 20.98 (9.91)
- UAS7 % Change difference for rilzabrutinib vs. placebo LS Mean (95% CI) (400 mg QPM, Week 8): −3.38%
- UAS7 % Change from baseline LS Mean (SE) (400 mg QPM, Week 8): −35.22%
- UAS7 Change difference for rilzabrutinib vs. placebo LS Mean (95% CI) (400 mg QPM, Week 8): −0.53
- UAS7 Change from baseline LS Mean (SE) (400 mg QPM, Week 8): −10.88
- UAS7 Post-baseline Mean (SD) (400 mg QPM, Week 8): 21.01 (10.40)
- UAS7 % Change difference for rilzabrutinib vs. placebo LS Mean (95% CI) (400 mg QPM, Week 9): −8.48%
- UAS7 % Change from baseline LS Mean (SE) (400 mg QPM, Week 9): −36.53%
- UAS7 Change difference for rilzabrutinib vs. placebo LS Mean (95% CI) (400 mg QPM, Week 9): −1.73
- UAS7 Change from baseline LS Mean (SE) (400 mg QPM, Week 9): −11.33
- UAS7 Post-baseline Mean (SD) (400 mg QPM, Week 9): 20.18 (10.10)
- UAS7 % Change difference for rilzabrutinib vs. placebo LS Mean (95% CI) (400 mg QPM, Week 10): −3.82%
- UAS7 % Change from baseline LS Mean (SE) (400 mg QPM, Week 10): −37.35%
- UAS7 Change difference for rilzabrutinib vs. placebo LS Mean (95% CI) (400 mg QPM, Week 10): −0.76
- UAS7 Change from baseline LS Mean (SE) (400 mg QPM, Week 10): −11.66
- UAS7 Post-baseline Mean (SD) (400 mg QPM, Week 10): 20.15 (10.55)
- UAS7 % Change difference for rilzabrutinib vs. placebo LS Mean (95% CI) (400 mg QPM, Week 11): −5.62%
- UAS7 % Change from baseline LS Mean (SE) (400 mg QPM, Week 11): −36.39%
- UAS7 Change difference for rilzabrutinib vs. placebo LS Mean (95% CI) (400 mg QPM, Week 11): −0.52
- UAS7 Change from baseline LS Mean (SE) (400 mg QPM, Week 11): −10.92
- UAS7 Post-baseline Mean (SD) (400 mg QPM, Week 11): 21.08 (11.00)
- UAS7 % Change difference for rilzabrutinib vs. placebo LS Mean (95% CI) (400 mg QPM, Week 12): −2.09%
- UAS7 % Change from baseline LS Mean (SE) (400 mg QPM, Week 12): −35.03%
- UAS7 Change difference for rilzabrutinib vs. placebo LS Mean (95% CI) (400 mg QPM, Week 12): 0.97
- UAS7 Change from baseline LS Mean (SE) (400 mg QPM, Week 12): −10.22
- UAS7 Post-baseline Mean (SD) (400 mg QPM, Week 12): 21.80 (10.94)
- UAS7 % Change difference for rilzabrutinib vs. placebo LS Mean (95% CI) (400 mg TID, Week 2): −29.83%
- UAS7 % Change from baseline LS Mean (SE) (400 mg TID, Week 2): −48.69%
- UAS7 Change difference for rilzabrutinib vs. placebo LS Mean (95% CI) (400 mg TID, Week 2): −8.72
- UAS7 Change from baseline LS Mean (SE) (400 mg TID, Week 2): −15.06
- UAS7 Post-baseline Mean (SD) (400 mg TID, Week 2): 14.58 (10.74)
- UAS7 % Change difference for rilzabrutinib vs. placebo LS Mean (95% CI) (400 mg TID, Week 3): −28.32%
- UAS7 % Change from baseline LS Mean (SE) (400 mg TID, Week 3): −49.95%
- UAS7 Change difference for rilzabrutinib vs. placebo LS Mean (95% CI) (400 mg TID, Week 3): −7.56
- UAS7 Change from baseline LS Mean (SE) (400 mg TID, Week 3): −15.15
- UAS7 Post-baseline Mean (SD) (400 mg TID, Week 3): 14.42 (9.77)
- UAS7 % Change difference for rilzabrutinib vs. placebo LS Mean (95% CI) (400 mg TID, Week 4): −25.68%
- UAS7 % Change from baseline LS Mean (SE) (400 mg TID, Week 4): −48.94%
- UAS7 Change difference for rilzabrutinib vs. placebo LS Mean (95% CI) (400 mg TID, Week 4): −6.71
- UAS7 Change from baseline LS Mean (SE) (400 mg TID, Week 4): −14.78
- UAS7 Post-baseline Mean (SD) (400 mg TID, Week 4): 13.93 (9.77)
- UAS7 % Change difference for rilzabrutinib vs. placebo LS Mean (95% CI) (400 mg TID, Week 5): −22.21%
- UAS7 % Change from baseline LS Mean (SE) (400 mg TID, Week 5): −54.01%
- UAS7 Change difference for rilzabrutinib vs. placebo LS Mean (95% CI) (400 mg TID, Week 5): −6.47
